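Step 1: Grow cells in 96-well plates. Step 2: Expose to compound for 48 hours at 5 concentrations. Step 3: Interpolate endpoints linearly; if unreached, use highest concentration. GI50: concentration for 50% inhibition of growth. Definition used: TGI = concentration required for complete inhibition of growth.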
What was measured:
Experiment in all cases: inhibition of tumour cell growth, NCI panel, 48 h
ACHN renal = test system: ACHN renal
MCF7 breast = test system: MCF7 breast
OVCAR-8 ovarian = test system: OVCAR-8 ovarian
UACC-62 melanoma = test system: UACC-62 melanoma
EKVX NSCLC = test system: EKVX NSCLC
UO-31 renal = test system: UO-31 renal
NCI-H460 lung = test system: NCI-H460 lung
HCT-116 colon = test system: HCT-116 colon
RPMI-8226 leukemia = test system: RPMI-8226 leukemia
TK-10 renal = test system: TK-10 renal
HT29 colon = test system: HT29 colon
786-0 renal = test system: 786-0 renal
U251 CNS = test system: U251 CNS
HCT-15 colon = test system: HCT-15 colon
A549 NSCLC = test system: A549 NSCLC
SNB-75 CNS = test system: SNB-75 CNS
HL-60(TB) leukemia = test system: HL-60(TB) leukemia
NCI-H522 lung = test system: NCI-H522 lung
KM12 colon = test system: KM12 colon
NCI-H226 lung = test system: NCI-H226 lung
HOP-62 NSCLC = test system: HOP-62 NSCLC
T-47D breast = test system: T-47D breast
OVCAR-5 ovarian = test system: OVCAR-5 ovarian
OVCAR-4 ovarian = test system: OVCAR-4 ovarian
BT-549 breast = test system: BT-549 breast
K-562 leukemia = test system: K-562 leukemia
MDA-MB-231 breast = test system: MDA-MB-231 breast
HOP-92 NSCLC = test system: HOP-92 NSCLC
PC-3 prostate = test system: PC-3 prostate

COc1cc(NCCCCCN=C(N)N)c2ncccc2c1
GI50 (ACHN renal): 41.5 µM
TGI (ACHN renal): > 100 µM
GI50 (MCF7 breast): 0.179 µM
TGI (MCF7 breast): 1.11 µM
GI50 (OVCAR-8 ovarian): 4.24 µM
TGI (OVCAR-8 ovarian): > 71.7 µM
GI50 (UACC-62 melanoma): 7.2 µM
TGI (UACC-62 melanoma): 24 µM
GI50 (EKVX NSCLC): 4.79 µM
TGI (EKVX NSCLC): > 50.5 µM
GI50 (UO-31 renal): > 100 µM
TGI (UO-31 renal): > 100 µM
GI50 (NCI-H460 lung): 7.09 µM
TGI (NCI-H460 lung): > 57.5 µM
GI50 (HCT-116 colon): 2.74 µM
TGI (HCT-116 colon): > 63.5 µM
GI50 (RPMI-8226 leukemia): 5.45 µM
TGI (RPMI-8226 leukemia): 33.5 µM
GI50 (TK-10 renal): 3.43 µM
TGI (TK-10 renal): 17.1 µM
GI50 (HT29 colon): 5.97 µM
TGI (HT29 colon): > 80.7 µM
GI50 (786-0 renal): 23.8 µM
TGI (786-0 renal): > 100 µM
GI50 (U251 CNS): 3.23 µM
TGI (U251 CNS): 25.8 µM
GI50 (HCT-15 colon): 43.9 µM
TGI (HCT-15 colon): > 100 µM
GI50 (A549 NSCLC): 30 µM
TGI (A549 NSCLC): > 100 µM
GI50 (SNB-75 CNS): 3.25 µM
TGI (SNB-75 CNS): 16.6 µM
GI50 (HL-60(TB) leukemia): 3.46 µM
TGI (HL-60(TB) leukemia): 15.2 µM
GI50 (NCI-H522 lung): 0.369 µM
TGI (NCI-H522 lung): 4.85 µM
GI50 (KM12 colon): 2.04 µM
TGI (KM12 colon): 14.5 µM
GI50 (NCI-H226 lung): 16.8 µM
TGI (NCI-H226 lung): > 100 µM
GI50 (HOP-62 NSCLC): 10.1 µM
TGI (HOP-62 NSCLC): > 93.4 µM
GI50 (T-47D breast): 1.07 µM
TGI (T-47D breast): 6.98 µM
GI50 (OVCAR-5 ovarian): 5.73 µM
TGI (OVCAR-5 ovarian): 30 µM
GI50 (OVCAR-4 ovarian): 0.043 µM
TGI (OVCAR-4 ovarian): 0.953 µM
GI50 (BT-549 breast): 5.38 µM
TGI (BT-549 breast): 18.5 µM
GI50 (K-562 leukemia): 5.16 µM
TGI (K-562 leukemia): > 88.2 µM
GI50 (MDA-MB-231 breast): 2.65 µM
TGI (MDA-MB-231 breast): 12.3 µM
GI50 (HOP-92 NSCLC): 2.69 µM
TGI (HOP-92 NSCLC): 40.4 µM
GI50 (PC-3 prostate): 3.47 µM
TGI (PC-3 prostate): > 49.6 µM

Source: PubChem BioAssay (NCI)
